The target of assay [1] is T1, proteasome Caspase-like (C-L) activity (Mus musculus, UniProt P70195+Q60692).
T1 construct: RBCs were lysed with assay lysis buffer and incubated on ice for 30 minutes; from tissue; host or cells: red blood cells of NOD/SCID mice
The assay can be described thus: Pharmacodynamic proteasome activity in murine red blood cells, C-L. In kind it is in vivo, NOD/SCID mice. As to conditions: iv, mice, 2 mg/kg i.v., time 0, read-out: Caspase-like (C-L) mean residual activity relative to vehicle treated controls. How it is done:
Cells were harvested by centrifugation at 1,200 rpm at room temperature. Cell pellets were washed with PBS (phosphate buffered saline) and lysed with assay lysis buffer (50 mM HEPES (N-2-hydroxyethylpiperazine-N′-2-ethanesulfonic acid), pH 7.5; 150 mM NaCl; 1% Triton X-100; 2 mM ATP). Cell lysates were incubated on ice for 30 minutes, mixed by vortex every 5 minutes, and then centrifuged at 12,000 g for 10 minutes. The supernatant was transferred to a 96-well plate. For each assay, 10 μg of total protein were incubated for 1 hour at 37° C. with increasing concentrations (1 nM to 10 μM) of test compound diluted in assay buffer (50 mM tris-HCl (tris(hydroxymethyl)aminomethane-HCl), pH 7.5; 150 mM NaCl). DMSO alone was used as a control in every assay plate. After incubation, a specific fluorogenic proteasome substrate was added to each assay reaction at a final concentration of 40 μM in a total volume of 100 μL. N-Succinyl-Leu-Leu-Val-Tyr-7-amino-4-methylcoumarin (Suc-Leu-Leu-Val-Tyr-AMC) was used for measuring chymotrypsin-like (CT-L) activity, t-butoxycarbonyl-Leu-Arg-Arg-7-amino-4-methylcoumarin (Boc-Leu-Arg-Arg-AMC) for trypsin-like (T-L) activity, and benzyloxycarbonyl-L-leucyl-L-leucyl-L-glutamyl-7-amino-4-methylcoumarin (Z-Leu-Leu-Glu-AMC) for caspase-like (C-L) activity. The excitation wavelength was set at 360 nm and the fluorescence emission wavelength of AMC was detected at 460 nm. The fluorescence of free AMC released during the enzymatic reaction was measured with a SpectraMax M5 fluorescent spectrophotometric plate reader (Molecular Devices, Sunnyvale, Calif.). AMC release rate was measured at 37° C. in a kinetic mode, recording every 5 minutes for 30 minutes. Experiments were performed in triplicate and repeated at least twice.
All mouse experiments were performed in accordance with approval from the Ontario Cancer Institute institutional animal review board. Five- to six-week-old male non-obese diabetic/severe combined immunodeficient (NOD/SCID) mice were grouped randomly (n=3 mice per group). Mice were administered vehicle (5% DMSO, 20% Cremophor) or compounds of Formula I at different doses either intravenously or by oral gavage, and venous blood samples (20-50 μL) were collected from each mouse over 24 hours. Blood samples were mixed with heparin (APP Pharmaceuticals; Schaumburg, Ill.) in 0.5 mL tubes in accordance with the manufacturer's instructions. After centrifugal separation at 3,000 g for 10 minutes, red blood cells (RBCs) in the bottom layer were transferred into a new tube and stored at −70° C. until use. RBCs were lysed with assay lysis buffer and incubated on ice for 30 minutes, mixing by vortex every 5 minutes, and then centrifuged at 12,000 g for 10 minutes. The supernatant was transferred to a 96-well plate and proteasome activity was measured as described above for tumor cell lysates.
Proteasome subunit activity (Chymotrypsin-like, Trypsin-like, Caspase-like, CT-L, T-L, C-L, respectively) were monitored over the course of 24 hrs following […] administration of representative compounds of Formula I. NOD/SCID mice were treated with compounds of Formula I (2 mg/kg by iv administration) or vehicle control and carfilzomib for up to 24 hours, as described above. Table 9 summarizes the data on pharmacodynamic activity of representative compounds of Formula I following a dose of 2 mg/kg intravenous (i.v) administration to mice. Data are presented as mean residual activity (SEM) relative to vehicle treated controls.

For a further assay, the system named is T-47D. Nature of the assay: NCI screening panel, T-47D (Breast Cancer). In kind it is cell-based, human. How it is done:
Representative compounds of Formula I were screened using the National Cancer Institute (NCI) screening panel, which consists of a panel of human tumor cell lines, representing leukemia, melanoma, and cancers of the lung, colon, ovary, breast, prostate and renal system.
After 24 h, two plates of each cell line are fixed in situ with TCA, to represent a measurement of the cell population for each cell line at the time of drug addition (Tz). Experimental drugs are solubilised in dimethyl sulfoxide at 400-fold the desired final maximum test concentration and stored frozen prior to use. At the time of drug addition, an aliquot of frozen concentrate is thawed and diluted to twice the desired final maximum test concentration with complete medium containing 50 μg/mL gentamicin. Additional four, 10-fold or ½ log serial dilutions are made to provide a total of five drug concentrations plus control. Aliquots of 100 μl of these different drug dilutions are added to the appropriate microtiter wells already containing 100 μl of medium, resulting in the required final drug concentrations.
Following drug addition, the plates are incubated for an additional 48 h at 37° C., 5% CO2, 95% air, and 100% relative humidity. For adherent cells, the assay is terminated by the addition of cold TCA (trichloroacetic acid). Cells are fixed in situ by the gentle addition of 50 μl of cold 50% (w/v) TCA (final concentration, 10% TCA) and incubated for 60 minutes at 4° C. The supernatant is discarded, and the plates are washed five times with tap water and air dried. Sulforhodamine B (SRB) solution (100 μl) at 0.4% (w/v) in 1% acetic acid is added to each well, and plates are incubated for 10 minutes at room temperature. After staining, unbound dye is removed by washing five times with 1% acetic acid and the plates are air dried. Bound stain is subsequently solubilised with 10 mM trizma base, and the absorbance is read on an automated plate reader at a wavelength of 515 nm. For suspension cells, the methodology is the same except that the assay is terminated by fixing settled cells at the bottom of the wells by gently adding 50 μl of 80% TCA (final concentration, 16% TCA). Using the seven absorbance measurements [time zero, (Tz), control growth, (C), and test growth in the presence of drug at the five concentration levels (Ti)], the percentage growth is calculated at each of the drug concentrations levels. Percentage growth inhibition is calculated as: [(Ti−Tz)/(C−Tz)]×100 for concentrations for which Ti>/=Tz and [(Ti−Tz)/Tz]×100 for concentrations for which Ti<Tz.
Three dose response parameters are calculated for each experimental agent. Growth inhibition of 50% (GI50) is calculated from [(Ti−Tz)/(C−Tz)]×100=50, which is the drug concentration resulting in a 50% reduction in the net protein increase (as measured by SRB staining) in control cells during the drug incubation. The drug concentration resulting in total growth inhibition (TGI) is calculated from Ti=Tz. The LC50 (concentration of drug resulting in a 50% reduction in the measured protein at the end of the drug treatment as compared to that at the beginning) indicating a net loss of cells following treatment is calculated from [(Ti−Tz)/Tz]×100=−50. Values are calculated for each of these three parameters if the level of activity is reached. However, if the effect is not reached or is exceeded, the value for that parameter is expressed as greater or less than the maximum or minimum concentration tested.

SMILES strings stand for the structures. Where only a bound is given, the exact number is not on record here.

Regarding `CC(C)C[C@H](NC(=O)[C@H](COC(F)F)NC(=O)CN1CCOCC1)C(=O)N[C@@H](COC(F)F)C(=O)N[C@@H](CC(C)C)C(=O)[C@@]1(C)CO1` [Example 1, (2S)—N-[(1S)-1-(difluoromethoxymethyl)-2-[[(1S)-3-methyl-1-[(2R)-2-methyloxirane-2-carbonyl]butyl]amino]-2-oxo-ethyl]-2-[[(2S)-3-(difluoromethoxy)-2-[(2-morpholinoacetyl)amino]propanoyl]amino]-4-methyl-pentanamide], the remaining activity at 2 mg/kg in assay [1] is 100%. In the assay on T-47D, this compound registered a Log10GI50 of −7.94, a Log10LC50 of −7.11 and a Log10TGI50 of −7.53.

For the compound `CC(C)C[C@H](NC(=O)[C@H](COC(F)F)NC(=O)[C@H](COC(F)F)NC(=O)[C@H](CCc1ccccc1)NC(=O)CN1CCOCC1)C(=O)[C@@]1(C)CO1` [Example 7, (2S)-N-[(1S)-1-(difluoromethoxymethyl)-2-[[(1S)-1-(difluoromethoxymethyl)-2-[[(1S)-3-methyl-1-[(2R)-2-methyloxirane-2-carbo-nyl]butyl]amino]-2-oxo-ethyl]amino]-2-oxo-ethyl]-2-[(2-morpholinoacetyl)amino]-4-phenyl-butanamide], in assay [1], the remaining activity at 2 mg/kg was 100%. In the assay with T-47D, this compound gave a Log10GI50 of −7.85, a Log10LC50 of more than −4.00 and a Log10TGI50 of −7.32.

For `CC(C)C[C@H](NC(=O)[C@H](COC(F)F)NC(=O)CN1CCOCC1)C(=O)N[C@@H](Cc1ccccc1)C(=O)N[C@@H](CC(C)C)C(=O)[C@@]1(C)CO1` [Example 2, (2S)-N-[(1S)-1-benzyl-2-[[(1S)-3-methyl-1-[(2R)-2-methyloxirane-2-carbonyl]butyl]-amino]-2-oxo-ethyl]-2-[[(2S)-3-(difluoromethoxy)-2-[(2-morpholinoacetyl)amino]propanoyl]amino]-4-methyl-pentanamide], the remaining activity at 2 mg/kg in assay [1] turned out to be 100%. In the assay with T-47D, the Log10GI50 is listed as less than −8.00 and the Log10TGI50 is reported as −7.55.

Regarding `CC(C)C[C@H](NC(=O)[C@H](COC(F)F)NC(=O)[C@H](COC(F)F)NC(=O)[C@H](COC(F)F)NC(=O)CN1CCOCC1)C(=O)[C@@]1(C)CO1` [Example 17, (2S)-3-(difluoromethoxy)-N-[(1S)-1-(difluoromethoxymethyl)-2-[[(1S)-1-(difluoro-methoxymethyl)-2-[[(1S)-3-methyl-1-[(2R)-2-methyloxirane-2-carbonyl]butyl]amino]-2-oxo-ethyl]amino]-2-oxo-ethyl]-2-[(2-mor-pholinoacetyl)amino]-propanamide], the remaining activity at 2 mg/kg in assay [1] stood at 100%. Further, in the assay on T-47D, the Log10GI50 is −7.10, the Log10LC50 is recorded as more than −4.00 and the Log10TGI50 is recorded as −6.33.

For the compound `CC(C)C[C@H](NC(=O)[C@H](COC(F)F)NC(=O)CN1CCOCC1)C(=O)N[C@@H](COC(F)F)C(=O)N[C@@H](Cc1ccccc1)C(=O)[C@@]1(C)CO1` [Example 4, (2S)-N-[(1S)-2-[[(1S)-1-benzyl-2-[(2R)-2-methyloxiran-2-yl]-2-oxo-ethyl]amino]-1-(difluoromethoxymethyl)-2-oxo-ethyl]-2-[[(2S)-3-(difluoromethoxy)-2-[(2-mor-pholinoacetyl)amino]propanoyl]amino]-4 methyl-pentanamide], the remaining activity at 2 mg/kg in assay [1] worked out at 100%. Also, in the assay on T-47D, the Log10GI50 is −7.68 and the Log10TGI50 is on record as −7.08.

For `CC(C)C[C@H](NC(=O)[C@H](Cc1ccccc1)NC(=O)[C@H](COC(F)F)NC(=O)[C@H](COC(F)F)NC(=O)CN1CCOCC1)C(=O)[C@@]1(C)CO1` [Example 11, (2S)-2-[[(2S)-3-(difluoromethoxy)-2-[[(2S)-3-(difluoromethoxy)-2-[(2-morpholinoacetyl)-amino]propanoyl]amino]propanoyl]amino]-N-[(1S)-3-methyl-1-[(2R)-2-methyloxirane-2-carbonyl]butyl]-3-phenyl-propanamide], in assay [1], the remaining activity at 2 mg/kg is 100%. Also, in the assay with T-47D, the Log10GI50 is on record as −7.71 and the Log10TGI50 was more than −4.00.

With `CC(C)C[C@H](NC(=O)[C@H](COC(F)F)NC(=O)CN1CCOCC1)C(=O)N[C@@H](Cc1ccccc1)C(=O)N[C@@H](Cc1ccccc1)C(=O)[C@@]1(C)CO1` [Example 3, (2S)-N-[(1S)-1-benzyl-2-[[(1S)-1-benzyl-2-[(2R)-2-methyloxiran-2-yl]-2-oxo-ethyl]amino]-2-oxo-ethyl]-2-[[(2S)-3-(difluoromethoxy)-2-[(2-morpholinoacetyl)-amino]propanoyl]amino]-4-methyl-pentan-amide], the remaining activity at 2 mg/kg in assay [1] was 100%. In the assay on T-47D, this compound returned a Log10GI50 of less than −8.00 and a Log10TGI50 of −7.59.

These data come from patent US20150218212A1, “FLUORINATED EPOXYKETONE-BASED TETRAPEPTIDE COMPOUNDS AND USES THEREOF AS PROTEASOME INHIBITORS” (FLUORINOV PHARMA INC., priority 2012, published 2015).
